Laboratory results as given in ChEMBL document CHEMBL4828766 (J Med Chem, 2021).
Values belong to the molecule of their own block, whether it stands above or below them. Active and inactive are the calls of the source. The rule behind the calls is not given here. Square brackets hold non-standard residues; d marks the D form. Peptide text beside a SMILES is read from it. Phe(4-I) = N[C@@H](Cc1ccc(I)cc1)C(=O)O; dPhe(4-I) = N[C@H](Cc1ccc(I)cc1)C(=O)O; 2Nal = N[C@@H](Cc1ccc2ccccc2c1)C(=O)O; d2Nal = N[C@H](Cc1ccc2ccccc2c1)C(=O)O

Columns and labels:
[1] = molecular target: Melanocyte-stimulating hormone receptor (Mus musculus) (UniProt Q01727); test: Agonist activity at mouse MC1R expressed in HEK293 cells assessed as induction of cAMP level at 100 uM incubated for 2 hr by alphaScreen assay relative to NDP-MSH; type: functional, cell-based; conditions: filed as agonist
Melanocortin receptor 3 [2] = molecular target: T1, Melanocortin receptor 3 (Mus musculus, UniProt P33033); test: Agonist activity at mouse MC3R expressed in HEK293 cells assessed as induction of cAMP level incubated for 2 hr by alphaScreen assay; type: functional, cell-based
[3] = molecular target: Melanocortin receptor 5 (Mus musculus) (UniProt P41149); test: Agonist activity at mouse MC5R expressed in HEK293 cells assessed as induction of cAMP level at 100 uM incubated for 2 hr by alphaScreen assay relative to control; type: functional, cell-based
Melanocortin receptor 3 [4] = molecular target: T1, Melanocortin receptor 3; test: (§1) Antagonist activity at mouse melanocortin receptor 3 expressed in HEK293 cells assessed as inhibition of NDP-MSH-induced cAMP accumulation incubated for 2 hrs by cAMP Alpha-screen assay based Schild analysis; type: functional, cell-based; conditions: for Kb: read-out: pA2 (converted)
Melanocortin receptor 4 [5] = molecular target: T2, Melanocortin receptor 4 (Mus musculus, UniProt P56450); test: Antagonist activity at mouse melanocortin receptor 4 expressed in HEK293 cells assessed as inhibition of NDP-MSH-induced cAMP accumulation incubated for 2 hrs by cAMP Alpha-screen assay based Schild analysis; type: functional, cell-based; conditions: for Kb: read-out: pA2 (converted)
Melanocortin receptor 4 [6] = molecular target: T2, Melanocortin receptor 4; test: Agonist activity at mouse MC4R expressed in HEK293 cells assessed as induction of cAMP level incubated for 2 hr by alphaScreen assay; type: functional, cell-based
[7] = molecular target: Melanocortin receptor 4 (Homo sapiens) (UniProt P32245); test: Inhibition of [125 I][Nle 4,D -Phe 7]alpha-MSH binding to human MC4R expressed in African green monkey COS-1 cell membrane by gamma-counter method; type: cell membranes
[8] = molecular target: Melanocortin receptor 3 (Homo sapiens) (UniProt P41968); test: Inhibition of [125 I][Nle 4,D -Phe 7]alpha-MSH binding to human MC3R expressed in African green monkey COS-1 cell membrane by gamma-counter method; type: cell membranes
Melanocortin receptor 5 = Melanocortin receptor 5 (Mus musculus, UniProt P41149); test: Agonist activity at mouse MC5R expressed in HEK293 cells assessed as induction of cAMP level at 100 uM incubated for 2 hr by alphaScreen assay; type: functional, cell-based
[9] = molecular target: Melanocortin receptor 3 (Mus musculus) (UniProt P33033); test: as §1; type: functional, cell-based
[10] = molecular target: Melanocortin receptor 4 (Mus musculus) (UniProt P56450); test: Antagonist activity at mouse melanocortin receptor 4 expressed in HEK293 cells assessed as inhibition of NDP-MSH-induced cAMP accumulation incubated for 2 hrs by cAMP Alpha-screen assay based Schild analysis
Target sequence in this assay (P56450 whole entry, looked up): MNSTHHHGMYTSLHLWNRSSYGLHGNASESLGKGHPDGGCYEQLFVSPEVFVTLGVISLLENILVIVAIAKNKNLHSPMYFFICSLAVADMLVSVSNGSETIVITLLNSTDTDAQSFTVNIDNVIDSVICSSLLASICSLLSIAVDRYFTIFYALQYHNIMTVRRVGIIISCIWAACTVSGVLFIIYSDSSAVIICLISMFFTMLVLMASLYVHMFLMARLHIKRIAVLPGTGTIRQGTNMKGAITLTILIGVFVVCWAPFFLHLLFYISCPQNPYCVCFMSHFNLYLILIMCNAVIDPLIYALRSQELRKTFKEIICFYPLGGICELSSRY

[11] = molecular target: Melanocortin receptor 3 (Mus musculus) (UniProt P33033); test: Agonist activity at mouse MC3R expressed in HEK293 cells assessed as induction of cAMP level at 100 uM incubated for 2 hr by alphaScreen assay relative to control; type: functional, cell-based
[12] = molecular target: Melanocortin receptor 4 (Mus musculus) (UniProt P56450); test: (§2) Agonist activity at mouse MC4R expressed in HEK293 cells assessed as induction of cAMP level at 100 uM incubated for 2 hr by alphaScreen assay relative to control; type: functional, cell-based
Target sequence in this assay (P56450 whole entry): as the sequence (P56450 whole entry, looked up) above

[13] = molecular target: T3, Melanocyte-stimulating hormone receptor (Mus musculus, UniProt Q01727); test: Partial agonist activity at mouse MC1R expressed in HEK293 cells assessed as induction of cAMP level incubated for 2 hr by alphaScreen assay; type: functional, cell-based
[14] = molecular target: Melanocyte-stimulating hormone receptor (Mus musculus) (UniProt Q01727); test: Partial agonist activity at mouse MC1R expressed in HEK293 cells assessed as induction of cAMP level at 100 uM incubated for 2 hr by alphaScreen assay relative to control; type: functional, cell-based
[15] = molecular target: T3, Melanocyte-stimulating hormone receptor; test: Agonist activity at mouse MC1R expressed in HEK293 cells assessed as induction of cAMP level at 100 uM incubated for 2 hr by alphaScreen assay; type: functional, cell-based
Melanocortin receptor 4 [16] = molecular target: T2, Melanocortin receptor 4; test: as §2; type: functional, cell-based

Sequence of Melanocortin receptor 5 (P41149 whole entry): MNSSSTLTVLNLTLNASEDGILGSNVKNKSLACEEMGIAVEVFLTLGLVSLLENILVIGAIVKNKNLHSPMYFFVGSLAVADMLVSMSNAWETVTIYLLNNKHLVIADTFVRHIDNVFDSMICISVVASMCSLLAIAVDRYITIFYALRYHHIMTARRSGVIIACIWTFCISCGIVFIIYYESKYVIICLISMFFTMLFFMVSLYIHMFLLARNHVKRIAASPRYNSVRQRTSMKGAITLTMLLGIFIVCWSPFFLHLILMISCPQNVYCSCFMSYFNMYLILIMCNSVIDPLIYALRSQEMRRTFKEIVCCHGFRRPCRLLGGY
Sequence of Melanocortin receptor 5 (Mus musculus) (P41149 whole entry): as above
Sequence of Melanocyte-stimulating hormone receptor (Mus musculus) (Q01727 whole entry, looked up): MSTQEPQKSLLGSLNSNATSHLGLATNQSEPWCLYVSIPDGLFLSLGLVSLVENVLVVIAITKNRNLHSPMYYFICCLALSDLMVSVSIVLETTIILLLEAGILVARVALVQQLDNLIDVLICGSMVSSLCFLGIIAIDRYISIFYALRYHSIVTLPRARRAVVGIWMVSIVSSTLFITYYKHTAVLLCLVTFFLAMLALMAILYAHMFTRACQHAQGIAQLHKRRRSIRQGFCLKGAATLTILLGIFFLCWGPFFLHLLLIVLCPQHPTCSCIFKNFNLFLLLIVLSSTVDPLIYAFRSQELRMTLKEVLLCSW
T3 sequence (Q01727 whole entry): as the sequence (Q01727 whole entry, looked up) above
T2 sequence (P56450 whole entry): as the sequence (P56450 whole entry, looked up) above
Sequence of Melanocortin receptor 3 (Mus musculus) (P33033 whole entry): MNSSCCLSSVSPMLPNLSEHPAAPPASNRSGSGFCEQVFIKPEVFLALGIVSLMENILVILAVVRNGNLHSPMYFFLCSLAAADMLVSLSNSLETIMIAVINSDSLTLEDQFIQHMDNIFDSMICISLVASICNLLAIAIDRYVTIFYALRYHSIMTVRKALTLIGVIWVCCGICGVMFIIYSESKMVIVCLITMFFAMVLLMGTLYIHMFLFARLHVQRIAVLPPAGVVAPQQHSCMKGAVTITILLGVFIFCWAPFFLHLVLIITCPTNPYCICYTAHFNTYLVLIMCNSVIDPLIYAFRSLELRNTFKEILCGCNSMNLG
T1 sequence (P33033 whole entry): as above
Sequence of Melanocortin receptor 4 (Homo sapiens) (P32245 whole entry): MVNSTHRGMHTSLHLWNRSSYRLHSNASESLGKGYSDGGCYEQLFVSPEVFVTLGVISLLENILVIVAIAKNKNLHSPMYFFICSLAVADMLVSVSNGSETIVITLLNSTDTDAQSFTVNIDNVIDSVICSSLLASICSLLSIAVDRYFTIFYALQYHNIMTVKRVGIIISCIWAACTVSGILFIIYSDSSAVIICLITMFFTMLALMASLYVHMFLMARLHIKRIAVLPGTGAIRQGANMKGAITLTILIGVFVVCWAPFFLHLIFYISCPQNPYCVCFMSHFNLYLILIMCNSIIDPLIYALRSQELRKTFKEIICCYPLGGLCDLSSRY
Sequence of Melanocortin receptor 3 (Homo sapiens) (P41968 whole entry): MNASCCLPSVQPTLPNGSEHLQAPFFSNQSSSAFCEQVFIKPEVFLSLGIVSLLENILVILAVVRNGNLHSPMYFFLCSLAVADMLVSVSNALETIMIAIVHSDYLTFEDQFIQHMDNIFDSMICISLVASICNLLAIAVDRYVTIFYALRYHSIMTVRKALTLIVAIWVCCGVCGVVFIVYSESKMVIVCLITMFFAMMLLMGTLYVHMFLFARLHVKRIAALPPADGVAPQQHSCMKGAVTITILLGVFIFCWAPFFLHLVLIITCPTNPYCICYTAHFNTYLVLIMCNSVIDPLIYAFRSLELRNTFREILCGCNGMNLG

SMILES: CC(=O)N[C@H](Cc1ccc2ccccc2c1)C(=O)N[C@H](Cc1ccc2ccccc2c1)C(=O)N[C@@H](Cc1ccc2ccccc2c1)C(=O)N[C@@H](CCCNC(=N)N)C(N)=O
- Activity [1]: 55%
- EC50 (Melanocortin receptor 3 [2]): > 100000 nM
- Activity ([3]; filed as agonist): 40%
- Kb (Melanocortin receptor 3 [4]): > 3160 nM
- Kb (Melanocortin receptor 4 [5]): > 3160 nM
- EC50 (Melanocortin receptor 4 [6]): > 100000 nM

- Activity [7]: 11.6 nM
- Activity [8]: 1120 nM
SMILES: CC(=O)N[C@@H](Cc1ccc2ccccc2c1)C(=O)N[C@@H](CCCNC(=N)N)C(=O)N[C@@H](Cc1ccc2ccccc2c1)C(N)=O

- Activity [1]: 60%
- EC50 (Melanocortin receptor 3 [2]): > 100000 nM
- EC50 (Melanocortin receptor 5): > 100000 nM
- pA2 [9]: inactive
- EC50 (Melanocortin receptor 4 [6]): > 100000 nM
- pA2 [10]: inactive
SMILES: CC(=O)N[C@@H](Cc1ccc(I)cc1)C(=O)N[C@@H](Cc1ccc2ccccc2c1)C(=O)N[C@@H](Cc1ccc(I)cc1)C(=O)N[C@@H](CCCNC(=N)N)C(N)=O (Ac-[Phe(4-I)][2Nal][Phe(4-I)]R-NH2)

SMILES: CC(=O)N[C@H](Cc1ccc2ccccc2c1)C(=O)N[C@@H](CCCNC(=N)N)C(=O)N[C@@H](Cc1ccc2ccccc2c1)C(=O)N[C@H](Cc1ccc2ccccc2c1)C(N)=O (Ac-[d2Nal]R[2Nal][d2Nal]-NH2)
- Activity [11]: 30%
- Activity [3]: 25%
- Kb (Melanocortin receptor 3 [4]): > 3160 nM
- Kb (Melanocortin receptor 4 [5]): 200 nM
- Activity [12]: 30%

SMILES: CC(=O)N[C@H](Cc1ccc2ccccc2c1)C(=O)N[C@@H](CCCNC(=N)N)C(=O)N[C@@H](Cc1ccc2ccccc2c1)C(=O)N[C@H](CCCCN)C(N)=O (Ac-[d2Nal]R[2Nal][dK]-NH2)
- EC50 [13]: 3300 nM
- EC50 (Melanocortin receptor 3 [2]): > 100000 nM
- EC50 (Melanocortin receptor 5): > 100000 nM
- Kb (Melanocortin receptor 3 [4]): 631 nM
- Kb (Melanocortin receptor 4 [5]): 15.8 nM
- EC50 (Melanocortin receptor 4 [6]): > 100000 nM
- Activity ([14]; filed as partial agonist): 50%

SMILES: CC(=O)N[C@H](Cc1ccc2ccccc2c1)C(=O)N[C@@H](CCCNC(=N)N)C(=O)N[C@H](Cc1ccc2ccccc2c1)C(=O)N[C@@H](CCCNC(=N)N)C(N)=O (Ac-[d2Nal]R[d2Nal]R-NH2)
- EC50 [13]: 1000 nM
- EC50 (Melanocortin receptor 3 [2]): > 100000 nM
- EC50 (Melanocortin receptor 5): > 100000 nM
- Kb (Melanocortin receptor 3 [4]): 794 nM
- Kb (Melanocortin receptor 4 [5]): 5.01 nM
- EC50 (Melanocortin receptor 4 [6]): > 100000 nM
- Activity ([14]; filed as partial agonist): 60%

SMILES: CC(=O)N[C@H](Cc1ccc2ccccc2c1)C(=O)N[C@@H](CCCNC(=N)N)C(=O)N[C@H](Cc1ccc2ccccc2c1)C(=O)N[C@H](Cc1ccc2ccccc2c1)C(N)=O (Ac-[d2Nal]R[d2Nal][d2Nal]-NH2)
- EC50 [13]: 5000 nM
- Activity ([11]; filed as agonist): 50%
- Activity [3]: 20%
- Kb (Melanocortin receptor 3 [4]): 2000 nM
- Kb (Melanocortin receptor 4 [5]): 501 nM
- Activity ([12]; filed as agonist): 45%
- Activity ([14]; filed as partial agonist): 85%

SMILES: CC(=O)N[C@H](Cc1ccc2ccccc2c1)C(=O)N[C@@H](CCCNC(=N)N)C(=O)N[C@H](Cc1ccc2ccccc2c1)C(=O)N[C@H](CCCCN)C(N)=O (Ac-[d2Nal]R[d2Nal][dK]-NH2)
- EC50 [13]: 6000 nM
- EC50 (Melanocortin receptor 3 [2]): > 100000 nM
- EC50 (Melanocortin receptor 5): > 100000 nM
- Kb (Melanocortin receptor 3 [4]): 1000 nM
- Kb (Melanocortin receptor 4 [5]): 6.31 nM
- EC50 (Melanocortin receptor 4 [6]): > 100000 nM
- Activity [14]: 30%

SMILES: CC(=O)N[C@H](Cc1ccc2ccccc2c1)C(=O)N[C@@H](CCCNC(=N)N)C(=O)N[C@H](Cc1ccc(I)cc1)C(=O)N[C@H](Cc1ccc2ccccc2c1)C(N)=O (Ac-[d2Nal]R[dPhe(4-I)][d2Nal]-NH2)
- Activity ([3]; filed as agonist): 40%
- Activity [12]: 30%

SMILES: CC(=O)N[C@H](Cc1ccc2ccccc2c1)C(=O)N[C@H](Cc1ccc2ccccc2c1)C(=O)N[C@@H](Cc1c[nH]c2ccccc12)C(=O)N[C@@H](CCCNC(=N)N)C(N)=O (Ac-[d2Nal][d2Nal]WR-NH2)
- Activity [1]: 45%
- Activity [11]: 35%
- Activity ([3]; filed as agonist): 45%
- Kb (Melanocortin receptor 3 [4]): > 3160 nM
- Kb (Melanocortin receptor 4 [5]): > 3160 nM
- Activity ([12]; filed as agonist): 60%

SMILES: CC(=O)N[C@H](Cc1ccc(I)cc1)C(=O)N[C@@H](CCCNC(=N)N)C(=O)N[C@@H](Cc1c[nH]c2ccccc12)C(=O)N[C@@H](CCCNC(=N)N)C(N)=O (Ac-[dPhe(4-I)]RWR-NH2)
- EC50 [13]: 7900 nM
- Activity [11]: 25%
- EC50 (Melanocortin receptor 5): > 100000 nM
- Ki (Melanocortin receptor 3 [4]): 40 nM
- Kb (Melanocortin receptor 3 [4]): 39.8 nM
- Ki (Melanocortin receptor 4 [5]): 2 nM
- Kb (Melanocortin receptor 4 [5]): 2 nM
- EC50 (Melanocortin receptor 4 [6]): > 100000 nM
- Activity ([14]; filed as partial agonist): 50%

SMILES: CC(=O)N[C@H](Cc1ccc(I)cc1)C(=O)N[C@@H](CCCNC(=N)N)C(=O)N[C@H](Cc1ccc2ccccc2c1)C(=O)N[C@H](Cc1ccc2ccccc2c1)C(N)=O (Ac-[dPhe(4-I)]R[d2Nal][d2Nal]-NH2)
- Activity [1]: 80%
- Activity ([11]; filed as agonist): 45%
- Activity [3]: 20%
- Ki (Melanocortin receptor 3 [4]): 790 nM
- Kb (Melanocortin receptor 3 [4]): 794 nM
- Ki (Melanocortin receptor 4 [5]): 200 nM
- Kb (Melanocortin receptor 4 [5]): 200 nM
- Activity ([12]; filed as agonist): 45%

- Activity [14]: 30%
SMILES: CC(=O)N[C@H](Cc1ccc(I)cc1)C(=O)N[C@@H](CCCNC(=N)N)C(=O)N[C@H](Cc1ccc2ccccc2c1)C(=O)N[C@H](CCCCN)C(N)=O (Ac-[dPhe(4-I)]R[d2Nal][dK]-NH2)

SMILES: CC(=O)N[C@H](Cc1ccc(I)cc1)C(=O)N[C@@H](CCCNC(=N)N)C(=O)N[C@H](Cc1ccc(I)cc1)C(=O)N[C@H](Cc1ccc2ccccc2c1)C(N)=O (Ac-[dPhe(4-I)]R[dPhe(4-I)][d2Nal]-NH2)
- EC50 [15]: 1100 nM
- Activity ([11]; filed as agonist): 40%
- Activity ([3]; filed as agonist): 65%
- Ki (Melanocortin receptor 3 [4]): 500 nM
- Kb (Melanocortin receptor 3 [4]): 501 nM
- Ki (Melanocortin receptor 4 [5]): 250 nM
- Kb (Melanocortin receptor 4 [5]): 251 nM
- Activity ([12]; filed as agonist): 40%

SMILES: CC(=O)N[C@H](Cc1ccc(I)cc1)C(=O)N[C@H](Cc1ccc2ccccc2c1)C(=O)N[C@@H](Cc1ccc2ccccc2c1)C(=O)N[C@H](CCCCN)C(N)=O (Ac-[dPhe(4-I)][d2Nal][2Nal][dK]-NH2)
- Activity [1]: 40%
- Activity [11]: 20%
- Activity ([3]; filed as agonist): 50%
- Kb (Melanocortin receptor 3 [4]): > 3160 nM
- Kb (Melanocortin receptor 4 [5]): > 3160 nM
- EC50 (Melanocortin receptor 4 [6]): > 100000 nM
- EC50 (Melanocortin receptor 4 [16]): > 100000 nM
